The source of these data is patent US20070014845A1, “Liposomal delivery vehicle for hydrophobic drugs” (priority 2005, published 2007).

For data set [1] the following is noted: cited from earlier work.
Data set [2] can be described thus: Solubility of RWJ-416457 in hydroxypropyl-β-cyclodextrin and sulfobutylether-β-cyclodextrin solutions (HPLC). Type of data set: physicochemical. As for the experimental part: Various liposomal formulations were prepared to perform supporting and illustrative studies. […] The solubility of the drug in the cyclodextrin solutions was determined.
The solubility of an antimicrobial oxazolidinone drug identified as RWJ-416457 in 40 w/v % hydroxylpropyl-β-cyclodextrin and in 20 w/v % sulfobutylether-β-cyclodextrin under various conditions of pH, temperature, and incubation time was determined as follows. About 15 mgs of drug was added to 5 mL of each cyclodextrin solution followed by incubation under one of three conditions: (1) with stirring at 45° C. for 2 hours; (2) with stirring at 45° C. for 2 hours followed by stirring at room temperature (25° C.) for 3 days; or (3) with stirring at room temperature (25° C.) for 3 days. After incubation, any non-solubilized drug crystals were removed either by centrifugation using a bench top centrifuge at 3000 rpm or by filtration using a hand-held syringe with a filter with 0.2 μm pore size. The drug concentration of the supernatant or the filtrate was then determined by high performance liquid chromatography (HPLC).

Data set [3] can be described thus: Drug concentration of filtered drug/cyclodextrin hydration solutions (HPLC). As to conditions: for drug concentration of filtered cyclodextrin solution: 10 mM histidine, 15 mM NaCl, pH 6.8, incubated 45° C. for 2 hours; for final drug concentration assayed by HPLC: 50 w/v % hydroxypropyl-β-cyclodextrin. Type of data set: physicochemical. The method, then:
A similar solution containing 30% cyclodextrin was prepared by dissolving 30 g of hydroxypropyl-β-cyclodextrin in a 100 mL of water. The solution also contained 10 mM histidine and 15 mM NaCl. The final osmolality was 451 mOsm/kg (Wescor Osmometer) and the pH was 6.8. Drug (RWJ-425457) was added to the cyclodextrin solution, incubated (45° C. for 2 hours), and filtered, to yield a drug concentration of 9.9 mg/mL.
A similar solution containing 20% cyclodextrin was prepared by dissolving 20 g of hydroxypropyl-β-cyclodextrin in a 100 mL of buffer (10 mM histidine and 15 mM NaCl). The final osmolality was 199 mOsm/kg (Wescor Osmometer) and the pH was 6.8. Drug (RWJ-425457) was added to the cyclodextrin solution, incubated (45° C. for 2 hours) and filtered, to yield a drug concentration of 4.8 mg/mL.
A liposome formulation with no cholesterol, formulation no. 11, was also prepared as follows. A lipid mixture of HSPC/mPEG-DSPE 95:5 mol/mol (11.3 g HSPC and 2.1 g mPEG-DSPE) was solubilized in 10 mL ethanol at about 65 ° C. A 50% hydroxypropyl-β-cyclodextrin solution was made by solubilizing 50 g of the cyclodextrin in a total volume of 100 mL water. The osmolality was 720 mOsm/kg and the pH was 7.4. In a separate container 1.004 g of drug (RWJ416457) was placed in 100 mL of the 50 w/v % cyclodextrin solution. The mixture was stirred for 1 hour at 45° C. and then 3 hours at room temperature followed by filtration to removw any un-dissolved drug in the solution. The final drug concentration assayed by HPLC was 7.58 mg/mL and the osmolality of the hydration medium was 771 mOsm/kg. The lipid solution was then mixed with 90 mL of the drug/cyclodextrin solution (pre-warmed to 65° C.) followed by stirring at 65° C. for 1 hour to form a suspension of liposomes, identified as formulation no. 11.
A 50% hydroxypropyl-β-cyclodextrin solution was made by solubilizing 50.0 g of the cyclodextrin in a total volume of 100 mL water. The final osmolality was 720 mOsm/kg (Wescor Osmometer) and the pH was 7.4. In a separate container 1.004 g of drug (RWJ416457) was placed in 100 mL of the 50 w/v % cyclodextrin solution. The mixture was stirred for 4 hours at room temperature followed by filtration to remove any drug in the external solution. The final drug concentration assayed by HPLC was 7.58 mg/mL and osmolality was 771 mOsm/kg.

Bounds are passed on as bounds.

2-Hydroxypropyl-γ-cyclodextrin: the “Solubility in water” value in data set [1] was greater than 500 mg/mL.
For the compound `CC(=O)NC[C@H]1CN(c2ccc(N3Cc4cn(C)nc4C3)c(F)c2)C(=O)O1` [RWJ-416457], the “Solubility of RWJ-416457” value in data set [2] (Sample 1, pH 8.54, HP-β-CD 40%, 3 days RT, Filter) was 8.13 mg/mL; in data set [2] (Sample 2, pH 8.54, HP-β-CD 40%, 45° C. 2 hrs + 3 days RT, Filter), 9.46 mg/mL; in data set [2] (Sample 2, pH 8.54, HP-β-CD 40%, 45° C. 2 hrs, Centrifuge), 9.37 mg/mL; in data set [2] (Sample 2, pH 8.54, HP-β-CD 40%, 45° C. 2 hrs, Filter) it was 9.26 mg/mL; in data set [2] (Sample 3, pH 3.21, HP-β-CD 40%, 3 days RT, Filter), 7.6 mg/mL; in data set [2] (Sample 4, pH 3.21, HP-β-CD 40%, 45° C. 2 hrs + 3 days RT, Filter), 9.08 mg/mL. Moreover, the “Solubility of RWJ-416457” value was found to be 9.23 mg/mL in data set [2] (Sample 4, pH 3.21, HP-β-CD 40%, 45° C. 2 hrs, Centrifuge); 9.16 mg/mL in data set [2] (Sample 4, pH 3.21, HP-β-CD 40%, 45° C. 2 hrs, Filter); 7.21 mg/mL in data set [2] (Sample 5, pH 4.58, HP-β-CD 40%, 3 days RT, Filter); 9.1 mg/mL in data set [2] (Sample 6, pH 4.58, HP-β-CD 40%, 45° C. 2 hrs + 3 days RT, Filter); 9.17 mg/mL in data set [2] (Sample 6, pH 4.58, HP-β-CD 40%, 45° C. 2 hrs, Centrifuge); 9.16 mg/mL in data set [2] (Sample 6, pH 4.58, HP-β-CD 40%, 45° C. 2 hrs, Filter). In addition, the “Solubility of RWJ-416457” value in data set [2] (Sample 7, pH 6.94, SBE-β-CD 20%, 45° C. 2 hrs + 3 days RT, Filter) is recorded as 4.45 mg/mL; in data set [2] (Sample 7, pH 6.94, SBE-β-CD 20%, 45° C. 2 hrs, Centrifuge), 4.75 mg/mL; in data set [2] (Sample 7, pH 6.94, SBE-β-CD 20%, 45° C. 2 hrs, Filter), 4.55 mg/mL. For the same compound, the drug solubility entry was “above 4.5 mg/mL” in data set [2] (in 20% sulfobutylether-β-cyclodextrin (summary of Example 1A)) and “above 9 mg/mL” in data set [2] (in 40 w/v % hydroxypropyl-β-cyclodextrin (summary of Example 1A)). The solubility entry in data set [2] (in 20 w/v % sulfobutylether-β-cyclodextrin at 45° C.) is recorded as “about 4.5 mg/mL”; in data set [2] (in 40 w/v % hydroxypropyl-β-cyclodextrin at 45° C.) it was “about 9.1 mg/mL”; in data set [2] (in 40 w/v % hydroxypropyl-β-cyclodextrin at room temperature) it was “about 7.6 mg/mL”. Besides, the results for the “drug concentration of filtered cyclodextrin solution” value in data set [3] (20% hydroxypropyl-β-cyclodextrin) and in data set [3] (30% hydroxypropyl-β-cyclodextrin) were 4.8 mg/mL and 9.9 mg/mL, respectively. Further, the “final drug concentration assayed by HPLC” value in data set [3] (stirred 1 hour at 45° C. then 3 hours at room temperature) and in data set [3] (stirred 4 hours at room temperature) was 7.58 mg/mL throughout.
“β-Cyclodextrin sulfobutyl ether sodium salt”: the “Solubility in water” value in data set [1] was greater than 500 mg/mL.
As to Randomly Methylated β-cyclodextrin, the “Solubility in water” value in data set [1] is greater than 500 mg/mL.
For 2-Hydroxypropyl-β-cyclodextrin, the “Solubility in water” value in data set [1] was greater than 600 mg/mL.
In the case of `OC[C@H]1O[C@@H]2O[C@H]3[C@H](O)[C@@H](O)[C@@H](O[C@H]4[C@H](O)[C@@H](O)[C@@H](O[C@H]5[C@H](O)[C@@H](O)[C@@H](O[C@H]6[C@H](O)[C@@H](O)[C@@H](O[C@H]7[C@H](O)[C@@H](O)[C@@H](O[C@H]8[C@H](O)[C@@H](O)[C@@H](O[C@H]9[C@H](O)[C@@H](O)[C@@H](O[C@H]%10[C@H](O)[C@@H](O)[C@@H](O[C@H]1[C@H](O)[C@H]2O)O[C@@H]%10CO)O[C@@H]9CO)O[C@@H]8CO)O[C@@H]7CO)O[C@@H]6CO)O[C@@H]5CO)O[C@@H]4CO)O[C@@H]3CO` [δ-cyclodextrin], the “water solubility (at 25° C., g/100 mL)” value in data set [1] (at 25° C.) is given as 8.19 g/100 mL.
